Measured values from US20230321123A1, “INHIBITORS OF PSEUDOMONAS AERUGINOSA VIRULENCE FACTOR LasB” (Helmholtz-Zentrum Für Infektionsforschung GmbH, priority 2020, published 2023).
Where two headings read alike, the source gives them in different places.

Biological target: LasB (Pseudomonas aeruginosa, UniProt Q02RJ6)
Assay: biochemical
Set-up: species or system P. aeruginosa

LasB, sequence (Q02RJ6 198-498): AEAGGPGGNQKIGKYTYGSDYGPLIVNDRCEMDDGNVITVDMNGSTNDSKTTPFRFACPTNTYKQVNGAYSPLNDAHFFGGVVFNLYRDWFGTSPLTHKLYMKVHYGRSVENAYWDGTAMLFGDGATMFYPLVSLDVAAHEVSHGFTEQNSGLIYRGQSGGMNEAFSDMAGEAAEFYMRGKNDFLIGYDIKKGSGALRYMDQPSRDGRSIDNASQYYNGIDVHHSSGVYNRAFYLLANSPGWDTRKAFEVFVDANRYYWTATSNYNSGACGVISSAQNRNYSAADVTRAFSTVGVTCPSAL

| Structure (SMILES) | IC50 (IC50 against LasB) | other results |
| --- | --- | --- |
| COC(=O)c1ccsc1NC(=O)C(S)Cc1ccccc1 (centres unmarked) [Example 59] | – | IC50 (read-out: IC50 against LasB): 8000 ± 1000 nM |
| O=C(Nc1cccnc1)C(S)Cc1ccccc1 (centres unmarked) [Example 60] | – | IC50 (read-out: IC50 against LasB): 1200 ± 100 nM |
| O=C(Nc1nc2ccccc2[nH]1)C(S)Cc1ccccc1 (centres unmarked) [Example 61] | 7700 ± 1400 nM | – |
| CC(C)CC(S)C(=O)Nc1nc2ccccc2s1 (centres unmarked) [Example 62] | 650 ± 140 nM | – |
| CC(C)CC(C(=O)Nc1ccc(Cl)c(Cl)c1)P(=O)(O)O (centres unmarked) [Example 64] | 26 ± 4 nM | – |
| Cc1ccc(NC(=O)C(CC(C)C)P(=O)(O)O)c(F)c1 (centres unmarked) [Example 65] | 116 ± 16 nM | – |
| COc1ccc(NC(=O)C(CC(C)C)P(=O)(O)O)cc1 (centres unmarked) [Example 66] | 52 ± 10 nM | – |
| CC(=O)c1ccc(NC(=O)C(CC(C)C)P(=O)(O)O)cc1 (centres unmarked) [Example 67] | 40 ± 12 nM | – |
| CC(C)CC(C(=O)Nc1ccc(C(F)(F)F)cc1)P(=O)(O)O (centres unmarked) [Example 68] | 26 ± 8 nM | – |
| Cc1ccc(NC(=O)C(CC(C)C)P(=O)(O)O)c(C)c1 (centres unmarked) [Example 69] | 84 ± 3 nM | – |
| CC(C)CC(C(=O)Nc1ccc(F)cc1)P(=O)(O)O (centres unmarked) [Example 70] | 93 ± 22 nM | – |
| CC(C)CC(C(=O)Nc1ccc(Cl)cc1)P(=O)(O)O (centres unmarked) [Example 71] | 48 ± 4 nM | – |
| CC(C)CC(C(=O)Nc1ccc(Br)cc1)P(=O)(O)O (centres unmarked) [Example 72] | 49 ± 2 nM | – |
| CC(C)CC(C(=O)Nc1ccc(C#N)cc1)P(=O)(O)O (centres unmarked) [Example 73] | 25 ± 1 nM | – |
| CC(C)CC(C(=O)Nc1ccc(S(=O)(=O)C(F)(F)F)cc1)P(=O)(O)O (centres unmarked) [Example 74] | 28 ± 6 nM | – |
| CC(C)CC(C(=O)Nc1cccc2ccccc12)P(=O)(O)O (centres unmarked) [Example 75] | 69 ± 8 nM | – |
| CC(C)CC(C(=O)Nc1ccc2ccccc2c1)P(=O)(O)O (centres unmarked) [Example 76] | 64 ± 10 nM | – |
| CC(C)CC(C(=O)Nc1ccc2c(c1)CCC2)P(=O)(O)O (centres unmarked) [Example 77] | 44 ± 4 nM | – |
| Cc1ccc(NC(=O)C(Cc2ccccc2)P(=O)(O)O)cc1 (centres unmarked) [Example 78] | 137 ± 33 nM | – |
| O=C(Nc1ccc(C(F)(F)F)cc1)C(Cc1ccccc1)P(=O)(O)O (centres unmarked) [Example 79] | 102 ± 1 nM | – |
| Cc1ccc(NC(=O)C(CC2CCCCC2)P(=O)(O)O)cc1 (centres unmarked) [Example 80] | 2030 ± 110 nM | – |
| O=C(Nc1ccc(C(F)(F)F)cc1)C(CC1CCCCC1)P(=O)(O)O (centres unmarked) [Example 81] | 1870 ± 30 nM | – |
| CC(C)CC(C(=O)Nc1ccc(Cl)cn1)P(=O)(O)O (centres unmarked) [Example 82] | 501 ± 39 nM | – |
| CC(C)CC(C(=O)Nc1ccc(Cl)nc1)P(=O)(O)O (centres unmarked) [Example 83] | 1130 ± 20 nM | – |

| Structure (SMILES) | IC50 (IC50 against LasB) | other results |
| --- | --- | --- |
| CC(C)CC(C(=O)Nc1ccc(C(N)=O)nc1)P(=O)(O)O (centres unmarked) [Example 84] | 223 ± 16 nM | – |
| COC(=O)c1ccc(NC(=O)C(CC(C)C)P(=O)(O)O)cn1 (centres unmarked) [Example 85] | 194 ± 11 nM | – |
| CC(C)CC(C(=O)Nc1cnc(Cl)nc1)P(=O)(O)O (centres unmarked) [Example 86] | 498 ± 25 nM | – |
| CC(C)CC(C(=O)Nc1cnc(Br)nc1)P(=O)(O)O (centres unmarked) [Example 87] | 384 ± 2 nM | – |
| CC(C)CC(C(=O)Nc1ccc(Cl)nn1)P(=O)(O)O (centres unmarked) [Example 88] | 18800 ± 740 nM | – |
| CC(C)CC(C(=O)Nc1ccc(Br)nn1)P(=O)(O)O (centres unmarked) [Example 89] | 7910 ± 390 nM | – |
| O=C(CP(=O)(O)O)Nc1ccc(-c2ccc(Cl)cc2)cn1 [Example 90] | – | inhibition of LasB (@ 50 μm): 31% inhibition @ 50 μm |
| CC(C)CC(C(=O)N1CCN(c2ccc(Cl)cc2)CC1)P(=O)(O)O (centres unmarked) [Example 101] | 1450 ± 30 nM | – |
| CC(C)CC(C(=O)N1CCN(c2ncc(Br)cn2)CC1)P(=O)(O)O (centres unmarked) [Example 102] | 35800 ± 1750 nM | – |
| CC(C)CC(C(=O)NC1CCN(c2ccc(Cl)cc2)CC1)P(=O)(O)O (centres unmarked) [Example 103] | 1910 ± 110 nM | – |
| CC(C)CC(C(=O)Nc1ccc(NS(=O)(=O)c2ccc3c(c2)CN(C(=O)C(F)(F)F)CC3)cc1)P(=O)(O)O (centres unmarked) [Example 115] | 57 ± 3 nM | – |
| CC(C)CC(C(=O)Nc1ccc(NC(=O)c2ccc(Cl)c(Cl)c2)cc1)P(=O)(O)O (centres unmarked) [Example 118] | 25 ± 1 nM | – |
| CC(C)CC(C(=O)Nc1ccc(NC(=O)C(Cc2ccccc2)c2ccccc2)cc1)P(=O)(O)O (centres unmarked) [Example 120] | 30 ± 1 nM | – |
| CC(C)CC(C(=O)Nc1ccc(NC(=O)c2nc(Cl)cs2)cc1)P(=O)(O)O (centres unmarked) [Example 129] | 49 ± 2 nM | – |
| CC(C)CC(C(=O)Nc1ccc(NC(=O)c2ccc(Cl)c(Cl)c2)cc1)P(=O)(O)O (centres unmarked) [Example 137] | 41 ± 3 nM | – |
| CC(C)CC(C(=O)NC1CCN(Cc2ccc(Cl)cc2)CC1)P(=O)(O)O (centres unmarked) [Example 146] | 2270 ± 70 nM | – |
| CC(C)CC(C(=O)N[C@@H]1CCCN(Cc2ccc(Cl)cc2)C1)P(=O)(O)O (some centres unmarked) [Example 148] | 8360 ± 260 nM | – |
| CC(C)C(CC(=O)N1CCN(Cc2ccc(-c3ccc(Cl)cc3)cc2)CC1)P(=O)(O)O (centres unmarked) [Example 149] | 7280 ± 960 nM | – |
| CC(C)CC(C(=O)N1CCN(Cc2ccc(-c3ccc(Cl)cc3)cc2)CC1)P(=O)(O)O (centres unmarked) [Example 150] | 8660 ± 1110 nM | – |
| CC(C)CC(C(=O)NC12CC(C(=O)Nc3ccc(Cl)c(Cl)c3)(C1)C2)P(=O)(O)O (centres unmarked) [Example 151, (1-((3-((3,4-Dichlorophenyl)carbamoyl)bicyclo[1.1.1]pentan-1-yl)amino)-4-methyl-1-oxopentan-2-yl)phosphonic acid] | 347 ± 12 nM | – |
| CC(C)CC(C(=O)N[C@@H](C)C(=O)Nc1ccc(Cl)c(Cl)c1)P(=O)(O)O (some centres unmarked) [Example 153] | 62 ± 2 nM | – |
| CC[C@H](C)[C@H](NC(=O)C(CC(C)C)P(=O)(O)O)C(=O)Nc1ccc(Cl)c(Cl)c1 (some centres unmarked) [Example 154] | 13 ± 1 nM | – |
| CC(C)CC(C(=O)N[C@@H](CC(C)C)C(=O)Nc1ccc(Cl)c(Cl)c1)P(=O)(O)O (some centres unmarked) [Example 155] | 60 ± 2 nM | – |
